Results as given in ChEMBL document CHEMBL5360649, “Potential Broad-Spectrum Antimicrobial, Wound Healing, and Disinfectant Cationic Peptide Crafted from Snake Venom” (J Med Chem, 2023).
Activity calls are given as the source filed them. The rule behind the calls is not given here.

Legend:
Staphylococcus aureus [1] = assay: Induction of morphological changes in methicillin resistant Staphylococcus aureus assessed as decrease in legible cells at MIC concentration incubated for 6 hrs by AFM analysis; format: functional, organism-based
Staphylococcus aureus [2] = assay: Antibiofilm activity against methicillin-resistant Staphylococcus aureus in the presence of Cl-; format: functional, organism-based
Escherichia coli [3] = assay: Induction of morphological changes in Escherichia coli at MIC concentration incubated for 60 mins by SEM analysis; format: functional, organism-based
Staphylococcus aureus [4] = assay: Antibacterial activity against methicillin resistant Staphylococcus aureus assessed as inhibition of bacterial growth at 1.25 to 40 uM incubated for 8 hrs by microtiter plate reader analysis; format: functional, organism-based; conditions: dose 1.25-40 µM
Klebsiella pneumoniae [5] = assay: Antibiofilm activity against Klebsiella pneumoniae assessed as increase in dead cell proportion at 0.5 times of MIC incubated overnight by SYTO9/PI staining based fluorescence analysis; format: functional, organism-based
Rattus norvegicus [6] = species: Rattus norvegicus; assay: Induction of wound healing in surgically-induced Albino Wistar rat wound model assessed as dense epithelial-tissue layers at 10 uM measured after 11 days by H&E staining based analysis; format: functional; conditions: time 11.0 day
Klebsiella pneumoniae [7] = assay: Bactericidal activity against Klebsiella pneumoniae ATCC BAA-1705 assessed as reduction in bacterial growth incubated for 24 hrs by Mueller Hinton Agar based plate analysis; format: functional
Staphylococcus aureus [8] = assay: Antibiofilm activity against methicillin-resistant Staphylococcus aureus in the presence of Na+; format: functional, organism-based
Klebsiella pneumoniae [9] = assay: Induction of morphological changes in carbapenem resistant Klebsiella pneumoniae ATCC BAA-1705 assessed as cellular destruction at MIC concentration incubated for 6 hrs by SEM analysis; format: functional, organism-based
Cell membrane [10] = assay: Induction of outer membrane permeabilization in methicillin-resistant Staphylococcus aureus at 0.5 to 1 times of MIC incubated for 5 to 20 mins by fluorescence based NPN uptake assay; format: subcellular; conditions: time 5-20 min
Escherichia coli [11] = assay: Induction of morphological changes in Escherichia coli assessed as decrease in legible cells at MIC concentration incubated for 6 hrs by AFM analysis; format: functional, organism-based
Klebsiella pneumoniae [12] = assay: Induction of morphological changes in carbapenem resistant Klebsiella pneumoniae ATCC BAA-1705 assessed as membrane damage at MIC concentration incubated for 60 mins by SEM analysis; format: functional, organism-based
Erythrocyte = assay: Cytotoxicity against human RBC assessed as less damage to cells at 12.5 to 25 uM by SEM analysis; format: toxicity, cell-based; conditions: dose 12.5-25 µM
Klebsiella pneumoniae [13] = assay: Antibacterial activity against Klebsiella pneumoniae ATCC BAA-1705 assessed as inhibition of bacterial growth at 25 to 100 uM incubated overnight by spotting assay; format: functional, organism-based; conditions: dose 25-100 µM
[14] = Cytotoxicity against human MCF7 cells assessed as cell viability at 25 uM incubated for 24 hrs by MTT assay relative to control; format: toxicity, cell-based; conditions: read-out: Activity
Klebsiella pneumoniae [15] = assay: Induction of morphological changes in carbapenem resistant Klebsiella pneumoniae ATCC BAA-1705 assessed as inhibition of cell division by measuring elongated cells at MIC concentration incubated for 60 mins by SEM analysis; format: functional, organism-based
Klebsiella pneumoniae [16] = assay: Antibiofilm activity against Klebsiella pneumoniae in the presence of Cl-; format: functional, organism-based
Escherichia coli [17] = assay: Antibacterial activity against Escherichia coli assessed as inhibition of bacterial growth incubated for 0.5 to 8.5 hrs by microtiter plate reader analysis; format: functional, organism-based; conditions: dose 1.25-40 µM, time 0.5-8.5 hrs
Escherichia coli [18] = assay: Induction of morphological changes in Escherichia coli assessed as cellular destruction at MIC concentration incubated for 6 hrs by SEM analysis; format: functional, organism-based
Klebsiella pneumoniae [19] = assay: Induction of resistance development in Klebsiella pneumoniae assessed as fold increase in MIC at 0.5 times of MIC incubated with compound for 12 hrs followed by replacement with fresh medium for 12 hrs and measured after 20 repeated cycles; format: functional; conditions: time 240 hrs
Cell membrane [20] = assay: Induction of inner membrane permeabilization in methicillin-resistant Staphylococcus aureus assessed as increase in fluorescence at 0.5 to 1 times of MIC incubated for 60 mins by PI staining based fluorescence analysis; format: subcellular
Pseudomonas aeruginosa [21] = assay: Antibiofilm activity against Pseudomonas aeruginosa in the presence of Cl-; format: functional, organism-based
Escherichia coli [22] = assay: Antibacterial activity against Escherichia coli assessed as cell division block by measuring cellular elongation at 0.5 to 1 times of MIC incubated for 30 mins by SYTO9/PI staining based fluorescence microscopic analysis; format: functional, organism-based
[23] = Cytotoxicity against human A549 cells assessed as cell viability at 12.5 uM incubated for 24 hrs by MTT assay relative to control; format: toxicity, cell-based; conditions: read-out: Activity
[24] = Cytotoxicity against mouse RAW264.7 cells assessed as cell viability at 12.5 uM incubated for 24 hrs by MTT assay relative to control; format: toxicity, cell-based; conditions: read-out: Activity
Pseudomonas aeruginosa [25] = assay: Antibacterial activity against Pseudomonas aeruginosa assessed as cell division block by measuring bacterial filamentation at 0.5 to 1 times of MIC incubated for 30 mins by SYTO9/PI staining based fluorescence microscopic analysis; format: functional, organism-based
Staphylococcus aureus [26] = assay: Antibiofilm activity in methicillin-resistant Staphylococcus aureus assessed as biofilm disintegration at 0.5 to 1 times of MIC incubated for 24 hrs by Congo red dye based fluorescence analysis; format: functional, organism-based
[27] = Cytotoxicity against human A549 cells assessed as cell viability at 25 uM incubated for 24 hrs by MTT assay relative to control; format: toxicity, cell-based; conditions: read-out: Activity
U-937 = assay: Immunomodulatory activity in human U-937 cells assessed as effect on TNF-alpha expression level at 5 to 10 uM incubated for 24 hrs by radioimmunoprecipitation based dot-plot analysis; format: functional, cell-based; conditions: dose 5-10 µM
Rattus norvegicus [28] = species: Rattus norvegicus; assay: Induction of wound healing in surgically-induced Albino Wistar rat wound model assessed as densely packed epithelium containing keratinocytes at 10 uM measured after 11 days by H&E staining based analysis; format: functional; conditions: time 11.0 day
Escherichia coli [29] = assay: Induction of morphological changes in Escherichia coli assessed as membrane damage at MIC concentration incubated for 60 mins by SEM analysis; format: functional, organism-based
Rattus norvegicus [30] = species: Rattus norvegicus; assay: Induction of wound healing in surgically-induced Albino Wistar rat wound model inoculated with methicillin-resistant Staphylococcus aureus assessed as reduction in inflammatory cell infiltration at 10 uM measured after 11 days by H&E staining based analysis; format: functional; conditions: time 11.0 day
Rattus norvegicus [31] = species: Rattus norvegicus; assay: Induction of wound healing in surgically-induced Albino Wistar rat wound model assessed as proper formation of blood vessels at 10 uM measured after 11 days by H&E staining based analysis; format: functional; conditions: time 11.0 day
Cell membrane [32] = assay: Induction of cytoplasmic membrane depolarization in methicillin-resistant Staphylococcus aureus assessed as increase in fluorescence intensity at 0.5 to 1 times of MIC by DiSC3-5 dye based fluorescence method; format: subcellular
Staphylococcus aureus [33] = assay: Antibiofilm activity against methicillin-resistant Staphylococcus aureus assessed as increase in dead cell proportion at 0.5 times of MIC incubated overnight by SYTO9/PI staining based fluorescence analysis; format: functional, organism-based
Staphylococcus aureus [34] = assay: Antibiofilm activity against preformed biofilm in methicillin-resistant Staphylococcus aureus assessed as decrease in cell viability at 0.5 times of MIC incubated overnight by MTT assay relative to control; format: functional
[35] = Stability in human serum assessed as intact peptide remaining at 1 mM measured after 4 hrs by HPLC analysis; format: ADME, cell-free; conditions: read-out: Stability
[36] = Induction of wound healing in surgically-induced Albino Wistar rat wound model inoculated with methicillin-resistant Staphylococcus aureus assessed as decrease in mean open wound percentage at 10 uM measured after 11 days by photographic analysis (reference value: 32.25%); format: functional; set-up: scale not given: the % may be the effect or the level left; conditions: time 11 day

H-FLPIIKWVKKFFWRWR-OH
Activity (Staphylococcus aureus [1]): Active
Activity (Staphylococcus aureus [2]): Active
Activity (Escherichia coli [3]): Active
Activity (Staphylococcus aureus [4]): Active
Activity (Klebsiella pneumoniae [5]): inactive
Activity (Rattus norvegicus [6]): Active
MBC (Klebsiella pneumoniae [7]): 11 µM
Activity (Staphylococcus aureus [8]): Active
Activity (Klebsiella pneumoniae [9]): Active
Activity (Cell membrane [10]): Active
Activity (Escherichia coli [11]): Active
Activity (Klebsiella pneumoniae [12]): Active
Activity (Erythrocyte): Non-Toxic
Activity (Klebsiella pneumoniae [13]): Active
viability at 24 h, 25 µM [14]: 63.8%
Activity (Klebsiella pneumoniae [15]): Active
Activity (Klebsiella pneumoniae [16]): Active
Activity (Escherichia coli [17]): Dose-Dependent Effect
Activity (Escherichia coli [18]): Active
fold change (FC) (Klebsiella pneumoniae [19]): 2
Activity (Cell membrane [20]): Active
Activity (Pseudomonas aeruginosa [21]): Active
Activity (Escherichia coli [22]): Active
viability at 24 h, 12.5 µM [23]: 74.3%
viability at 24 h, 12.5 µM [24]: > 90%
Activity (Pseudomonas aeruginosa [25]): Active
Activity (Staphylococcus aureus [26]): Active
viability at 24 h, 25 µM [27]: 55.4%
Activity (U-937): Active
Activity (Rattus norvegicus [28]): Active
Activity (Escherichia coli [29]): Active
Activity (Rattus norvegicus [30]): Active
Activity (Rattus norvegicus [31]): Active
Activity (Cell membrane [32]): Active
Activity (Staphylococcus aureus [33]): inactive
Activity (Staphylococcus aureus [34]): 62.7%
remaining at 4 h, 1000 µM [35]: 82.6%
Activity [36]: 17.22%
